Results published in ChEMBL document CHEMBL1201862, “PubChem BioAssay data set” (2004).
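Results reflect a 48-hour exposure of cells in 96-well plates to compound at five concentrations. Abbreviation: GI50, concentration required for 50% inhibition of growth.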 Activity calls are given as the source filed them. Cut-off read from the data, not from the text of the source: active = GI50 up to about 1.1 µM and inactive = higher.

Experiments:
Assay in all cases: growth of human tumour cells (NCI), 48 h
HCT-116 = tested on: HCT-116
OVCAR-8 = tested on: OVCAR-8
SR = tested on: SR
CCRF-CEM = tested on: CCRF-CEM
CAKI-1 = tested on: CAKI-1
M14 = tested on: M14
NCI-H522 = tested on: NCI-H522
PC-3 = tested on: PC-3
HT-29 = tested on: HT-29
SF-295 = tested on: SF-295
UACC-62 = tested on: UACC-62
HL-60 = tested on: HL-60
HOP-62 = tested on: HOP-62
SK-OV-3 = tested on: SK-OV-3
K562 = tested on: K562
DU-145 = tested on: DU-145
IGROV-1 = tested on: IGROV-1
LOX IMVI = tested on: LOX IMVI
NCI/ADR-RES = tested on: NCI/ADR-RES
KM12 = tested on: KM12
MOLT-4 = tested on: MOLT-4
Malme-3M = tested on: Malme-3M
SNB-19 = tested on: SNB-19
SNB-75 = tested on: SNB-75
NCI-H226 = tested on: NCI-H226
T47D = tested on: T47D
MCF7 = tested on: MCF7
OVCAR-4 = tested on: OVCAR-4
SK-MEL-5 = tested on: SK-MEL-5
HOP-92 = tested on: HOP-92
TK-10 = tested on: TK-10
SN12C = tested on: SN12C
OVCAR-5 = tested on: OVCAR-5
ACHN = tested on: ACHN
BT-549 = tested on: BT-549
786-0 = tested on: 786-0
HCT-15 = tested on: HCT-15
RXF 393 = tested on: RXF 393
UACC-257 = tested on: UACC-257
UO-31 = tested on: UO-31
SK-MEL-28 = tested on: SK-MEL-28
RPMI-8226 = tested on: RPMI-8226
SK-MEL-2 = tested on: SK-MEL-2
MDA-MB-435 = tested on: MDA-MB-435
HCC 2998 = tested on: HCC 2998
MDA-MB-231 = tested on: MDA-MB-231
SF-268 = tested on: SF-268
SW-620 = tested on: SW-620
NCI-H460 = tested on: NCI-H460
EKVX = tested on: EKVX
SF-539 = tested on: SF-539
NCI-H23 = tested on: NCI-H23
A549 = tested on: A549
Hs-578T = tested on: Hs-578T
COLO 205 = tested on: COLO 205
U-251 = tested on: U-251
OVCAR-3 = tested on: OVCAR-3
MDA-N = tested on: MDA-N

Measured: GI50

O=S(=O)(/C=C/C=C/S(=O)(=O)c1ccccc1)c1ccccc1
1200 nM: HCT-15
active: OVCAR-8 573 nM | SR 285 nM | CCRF-CEM 151 nM | M14 507 nM | NCI-H522 174 nM | UACC-62 721 nM | HL-60 256 nM | K562 269 nM | LOX IMVI 713 nM | MOLT-4 315 nM | T47D 1040 nM | MCF7 845 nM | SK-MEL-5 853 nM | ACHN 769 nM | 786-0 537 nM | RXF 393 360 nM | UACC-257 733 nM | RPMI-8226 419 nM | SW-620 172 nM | OVCAR-3 721 nM
inactive: HCT-116 1270 nM | CAKI-1 1240 nM | PC-3 4680 nM | HT-29 1180 nM | SF-295 10400 nM | HOP-62 6760 nM | SK-OV-3 8000 nM | DU-145 14600 nM | IGROV-1 4560 nM | NCI/ADR-RES 1930 nM | KM12 2290 nM | Malme-3M 1170 nM | SNB-19 17500 nM | SNB-75 6610 nM | NCI-H226 7620 nM | OVCAR-4 1650 nM | HOP-92 1370 nM | TK-10 1570 nM | SN12C 2000 nM | OVCAR-5 7830 nM | BT-549 1150 nM | UO-31 1460 nM | SK-MEL-28 1320 nM | SK-MEL-2 2720 nM | MDA-MB-435 1450 nM | HCC 2998 11500 nM | MDA-MB-231 1560 nM | SF-268 1700 nM | NCI-H460 6100 nM | EKVX 1720 nM | SF-539 3880 nM | NCI-H23 1350 nM | A549 9270 nM | Hs-578T 2430 nM | COLO 205 1440 nM | U-251 4120 nM | MDA-N 1240 nM

CCOC(=O)COc1c(OC)cc(C2C3=C(COC3=O)Oc3cc4c(cc32)OCO4)cc1OC (stereo not given)
inactive: OVCAR-8 5690 nM | CAKI-1 3410 nM | M14 3030 nM | PC-3 1870 nM | UACC-62 1690 nM | HOP-62 2160 nM | SK-OV-3 3170 nM | DU-145 4500 nM | IGROV-1 1830 nM | NCI/ADR-RES 3370 nM | Malme-3M 57800 nM | SNB-19 13000 nM | SNB-75 4620 nM | NCI-H226 > 54000 nM | T47D 2540 nM | MCF7 3270 nM | OVCAR-4 2460 nM | HOP-92 14600 nM | TK-10 6180 nM | SN12C 1720 nM | OVCAR-5 > 84100 nM | ACHN 6520 nM | BT-549 21900 nM | 786-0 2770 nM | UACC-257 9770 nM | UO-31 13400 nM | SK-MEL-2 8750 nM | HCC 2998 14500 nM | MDA-MB-231 3030 nM | SF-268 13500 nM | NCI-H460 7940 nM | EKVX 4020 nM | SF-539 3570 nM | A549 4450 nM | Hs-578T 4510 nM
active: HCT-116 773 nM | SR 995 nM | CCRF-CEM 229 nM | NCI-H522 479 nM | HT-29 927 nM | SF-295 900 nM | HL-60 138 nM | K562 155 nM | LOX IMVI 625 nM | KM12 304 nM | MOLT-4 417 nM | SK-MEL-5 244 nM | SK-MEL-28 614 nM | RPMI-8226 255 nM | MDA-MB-435 63.5 nM | SW-620 476 nM | NCI-H23 646 nM | COLO 205 991 nM | U-251 499 nM | OVCAR-3 528 nM | MDA-N 384 nM
502 nM: HCT-15
